Assay results reported in ChEMBL document CHEMBL1157947, “Antineoplastic Agents. 554. The manitoba bacterium Streptomyces sp” (2006).
Values after ≈ are worked out from the molar mass of the structure shown.

Columns and labels:
Type in all cases: functional
[1] = tested on: Escherichia coli; assay: Antibacterial activity against sEscherichia coli by broth microdilution method
[2] = tested on: NCI-H460; assay: Growth inhibition of human NCI-H460 cells
[3] = tested on: DU-145; assay: Growth inhibition of human DU145 cells
[4] = tested on: Stenotrophomonas maltophilia; assay: Antibacterial activity against Stenotrophomonas maltophilia by broth microdilution method
[5] = tested on: Streptococcus pneumoniae; assay: Antibacterial activity against Streptococcus pneumoniae ATCC 6303 by broth microdilution method
[6] = tested on: KM-20L2; assay: Growth inhibition of human KM20L2 cells
[7] = tested on: SF-268; assay: Growth inhibition of human SF268 cells
[8] = tested on: P388; assay: Growth inhibition of mouse P388 cells
[9] = tested on: Enterobacter cloacae; assay: Antibacterial activity against sEnterobacter cloacae by broth microdilution method
[10] = tested on: Enterococcus faecalis; assay: Antibacterial activity against sEnterococcus faecalis by broth microdilution method
[11] = tested on: Staphylococcus aureus; assay: Antibacterial activity against Staphylococcus aureus by broth microdilution method
[12] = tested on: BXPC-3; assay: Growth inhibition of human BXPC3 cells
[13] = tested on: MCF7; assay: Growth inhibition of human MCF7 cells
[14] = tested on: Micrococcus luteus; assay: Antibacterial activity against Micrococcus luteus by broth microdilution method
[15] = tested on: Cryptococcus neoformans; assay: […] activity against Cryptococcus neoformans by broth microdilution method
[16] = tested on: Neisseria gonorrhoeae; assay: Antibacterial activity against Neisseria gonorrhoeae ATCC 49226 by broth microdilution method
[17] = tested on: Candida albicans; assay: Antifungal activity against Candida albicans by broth microdilution method

Row | SMILES | MIC [1] [µg/mL] | GI50 [2] [µg/mL] | GI50 [3] [µg/mL] | MIC [4] [µg/mL] | MIC [5] [µg/mL] | GI50 [6] [µg/mL] | GI50 [7] [µg/mL] | GI50 [8] [µg/mL] | MIC [9] [µg/mL] | MIC [10] [µg/mL] | MIC [11] [µg/mL] | GI50 [12] [µg/mL] | GI50 [13] [µg/mL] | MIC [14] [µg/mL] | MIC [15] [µg/mL] | MIC [16] [µg/mL] | MIC [17] [µg/mL]
1 | Cc1cc(=O)n(C)c2c1C(=O)c1c(C)cc(=O)n(C)c1C2=O [DIAZAANTHRAQUINONE] | > 64 | 1.2 (≈ 4.02 µM) | 1 (≈ 3.35 µM) | > 64 | 16 (≈ 53.6 µM) | 0.32 (≈ 1.07 µM) | 1.3 (≈ 4.36 µM) | 1.4 (≈ 4.69 µM) | > 64 | > 64 | > 64 | 0.54 (≈ 1.81 µM) | 0.49 (≈ 1.64 µM) | > 64 | > 64 | 4 (≈ 13.4 µM) | > 64
2 | O=C(CO)c1c[nH]c2ccccc12 | – | 0.17 (≈ 0.97 µM) | 0.21 (≈ 1.2 µM) | – | – | 1.2 (≈ 6.85 µM) | 1.8 (≈ 10.3 µM) | 2.8 (≈ 16 µM) | – | – | – | 0.31 (≈ 1.77 µM) | 0.82 (≈ 4.68 µM) | – | – | – | –
